Experimental data reported in patent publication US10758534B2 (Vertex Pharmaceuticals Incorporated, priority 2014, dated 2020).

target: T1, F508del (Homo sapiens, UniProt P13569, DEL508-508); test: Protocol 2: FRET membrane potential optical assay (VIPR), identification of correction compounds; type: cell-based; settings: F508del CFTR modulator activity; compounds of Table 1; read-out: EC30
T1 construct: expressed in transfected cells
How it was run: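 FRET read-out (CC2-DMPE donor, DiSBAC2(3) voltage-sensitive acceptor) of membrane depolarization on VIPR II. Corrector candidates incubated 16 hrs at 37° C. with NIH3T3 cells expressing F508del; temperature correction at 27° C. as positive control; stimulation by 10 μM forskolin, 20 μM genistein, chloride-free gluconate bath.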

T1 sequence (P13569 with tags, fused parts or gaps DEL508-508): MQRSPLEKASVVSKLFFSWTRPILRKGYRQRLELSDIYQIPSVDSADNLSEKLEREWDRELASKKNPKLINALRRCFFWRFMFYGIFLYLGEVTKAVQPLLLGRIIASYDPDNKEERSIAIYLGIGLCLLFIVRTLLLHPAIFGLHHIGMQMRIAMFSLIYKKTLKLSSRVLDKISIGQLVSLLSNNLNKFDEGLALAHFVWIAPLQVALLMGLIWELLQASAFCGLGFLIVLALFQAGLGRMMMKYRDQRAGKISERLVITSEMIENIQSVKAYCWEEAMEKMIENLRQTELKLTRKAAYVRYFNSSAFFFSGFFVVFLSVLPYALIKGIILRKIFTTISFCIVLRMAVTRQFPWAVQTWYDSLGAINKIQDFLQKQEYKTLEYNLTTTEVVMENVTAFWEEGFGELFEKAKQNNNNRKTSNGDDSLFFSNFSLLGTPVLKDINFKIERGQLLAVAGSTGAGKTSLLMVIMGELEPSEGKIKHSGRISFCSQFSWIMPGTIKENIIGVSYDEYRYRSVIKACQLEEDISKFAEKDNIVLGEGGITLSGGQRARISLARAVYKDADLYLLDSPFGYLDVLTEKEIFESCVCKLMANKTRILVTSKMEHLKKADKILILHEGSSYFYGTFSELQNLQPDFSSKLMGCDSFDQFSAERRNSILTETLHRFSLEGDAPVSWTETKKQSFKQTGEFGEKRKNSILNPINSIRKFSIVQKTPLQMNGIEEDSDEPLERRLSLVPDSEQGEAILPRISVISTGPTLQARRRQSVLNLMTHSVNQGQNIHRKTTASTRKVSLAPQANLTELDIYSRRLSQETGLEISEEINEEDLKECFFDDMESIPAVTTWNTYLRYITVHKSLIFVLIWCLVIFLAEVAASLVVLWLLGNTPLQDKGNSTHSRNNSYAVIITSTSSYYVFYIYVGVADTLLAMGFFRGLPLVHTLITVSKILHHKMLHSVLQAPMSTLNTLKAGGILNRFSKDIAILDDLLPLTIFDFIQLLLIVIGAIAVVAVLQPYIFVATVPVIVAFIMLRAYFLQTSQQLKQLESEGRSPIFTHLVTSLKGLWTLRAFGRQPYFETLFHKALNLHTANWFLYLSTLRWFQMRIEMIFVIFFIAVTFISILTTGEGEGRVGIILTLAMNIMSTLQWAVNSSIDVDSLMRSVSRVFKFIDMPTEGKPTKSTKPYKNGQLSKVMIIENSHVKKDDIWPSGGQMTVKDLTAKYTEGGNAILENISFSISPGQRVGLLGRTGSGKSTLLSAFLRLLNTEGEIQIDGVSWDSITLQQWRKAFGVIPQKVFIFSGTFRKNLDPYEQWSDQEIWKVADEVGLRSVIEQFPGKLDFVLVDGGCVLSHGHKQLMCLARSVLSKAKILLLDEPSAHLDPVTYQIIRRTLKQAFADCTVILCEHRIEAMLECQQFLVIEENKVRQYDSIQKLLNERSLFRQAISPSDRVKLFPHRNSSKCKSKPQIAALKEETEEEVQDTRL

| EC30 [nM] | Structure (SMILES) |
| --- | --- |
| 3000 to 10000 | Cc1cc(C)nc(Nc2cccc(S(=O)(=O)NC(=O)c3cccnc3N3CC(C)CC3(C)C)n2)c1 (stereo not shown) [Compound 2160, N—[[6-[(4,6-dimethyl-2-pyridyl)amino]-2-pyridyl]sulfonyl]-2-(2,2,4-trimethylpyrrolidin-1-yl)pyridine-3-carboxamide] |
| < 3000 | CC1CN(c2ncccc2C(=O)NS(=O)(=O)c2cccc(OCCc3ccsc3)n2)C(C)(C)C1 (stereo not shown) [Compound 2161, N—[[6-[2-(3-thienyl)ethoxy]-2-pyridyl]sulfonyl]-2-(2,2,4-trimethylpyrrolidin-1-yl)pyridine-3-carboxamide] |
| < 3000 | COc1cccc(-c2ccc(C(=O)NS(=O)(=O)c3cccnc3N)c(N3C[C@@H](C)CC3(C)C)n2)c1 [Compound 2164, N-[(2-amino-3-pyridyl)sulfonyl]-6-(3-methoxyphenyl)-2-[(4S)-2,2,4-trimethylpyrrolidin-1-yl]pyridine-3-carboxamide] |
| < 3000 | CC1CN(c2ncccc2C(=O)NS(=O)(=O)c2cccc(Oc3cccc(Cl)c3F)n2)C(C)(C)C1 (stereo not shown) [Compound 2165, N—[[6-(3-chloro-2-fluoro-phenoxy)-2-pyridyl]sulfonyl]-2-(2,2,4-trimethylpyrrolidin-1-yl)pyridine-3-carboxamide] |
| 3000 to 10000 | CC1CN(c2ncccc2C(=O)NS(=O)(=O)c2cccc(N3CCC(F)(F)C3)n2)C(C)(C)C1 (stereo not shown) [Compound 2166, N—[[6-(3,3-difluoropyrrolidin-1-yl)-2-pyridyl]sulfonyl]-2-(2,2,4-trimethylpyrrolidin-1-yl)pyridine-3-carboxamide] |
| < 3000 | COc1cccc(CNc2cccc(S(=O)(=O)NC(=O)c3cccnc3N3CC(C)CC3(C)C)n2)c1 (stereo not shown) [Compound 2168, N—[[6-[(3-methoxyphenyl)methylamino]-2-pyridyl]sulfonyl]-2-(2,2,4-trimethylpyrrolidin-1-yl)pyridine-3-carboxamide] |
| < 3000 | CC1CN(c2ncccc2C(=O)NS(=O)(=O)c2cccc(OCc3ccc4c(c3)OCO4)n2)C(C)(C)C1 (stereo not shown) [Compound 2169, N—[[6-(1,3-benzodioxol-5-ylmethoxy)-2-pyridyl]sulfonyl]-2-(2,2,4-trimethylpyrrolidin-1-yl)pyridine-3-carboxamide] |
| < 3000 | Cc1cc(-c2ccc(C(=O)NS(=O)(=O)c3cccc(N)n3)c(N3C[C@@H](C)CC3(C)C)n2)cnc1OC(C)C [Compound 2170, N-[(6-amino-2-pyridyl)sulfonyl]-6-(6-isopropoxy-5-methyl-3-pyridyl)-2-[(4S)-2,2,4-trimethylpyrrolidin-1-yl]pyridine-3-carboxamide] |
| < 3000 | CC1CN(c2ncccc2C(=O)NS(=O)(=O)c2cccc(OC3CCC(C(C)C)CC3)n2)C(C)(C)C1 (stereo not shown) [Compound 2173, N—[[6-(4-isopropylcyclohexoxy)-2-pyridyl]sulfonyl]-2-(2,2,4-trimethylpyrrolidin-1-yl)pyridine-3-carboxamide] |
| < 3000 | CC1CN(c2ncccc2C(=O)NS(=O)(=O)c2cccc(Oc3cc(Cl)cc(C#N)c3)n2)C(C)(C)C1 (stereo not shown) [Compound 2177, N—[[6-(3-chloro-5-cyano-phenoxy)-2-pyridyl]sulfonyl]-2-(2,2,4-trimethylpyrrolidin-1-yl)pyridine-3-carboxamide] |
| < 3000 | COc1ccc(OC)c(Nc2cccc(S(=O)(=O)NC(=O)c3cccnc3N3CC(C)CC3(C)C)n2)c1 (stereo not shown) [Compound 2179, N—[[6-(2,5-dimethoxyanilino)-2-pyridyl]sulfonyl]-2-(2,2,4-trimethylpyrrolidin-1-yl)pyridine-3-carboxamide] |
| < 3000 | CC1CN(c2ncc(-c3cccc(C(C)(C)C)c3)cc2C(=O)NS(=O)(=O)c2cccc(N)n2)C(C)(C)C1 (stereo not shown) [Compound 2180, N-[(6-amino-2-pyridyl)sulfonyl]-5-(3-tert-butylphenyl)-2-(2,2,4-trimethylpyrrolidin-1-yl)pyridine-3-carboxamide] |
| < 3000 | CC1CN(c2ncccc2C(=O)NS(=O)(=O)c2cccc(OCc3cccs3)n2)C(C)(C)C1 (stereo not shown) [Compound 2181, N—[[6-(2-thienylmethoxy)-2-pyridyl]sulfonyl]-2-(2,2,4-trimethylpyrrolidin-1-yl)pyridine-3-carboxamide] |
| < 3000 | CC1CN(c2ncccc2C(=O)NS(=O)(=O)c2cccc(OCc3ccc(Cl)cc3F)n2)C(C)(C)C1 (stereo not shown) [Compound 2182, N—[[6-[(4-chloro-2-fluoro-phenyl)methoxy]-2-pyridyl]sulfonyl]-2-(2,2,4-trimethylpyrrolidin-1-yl)pyridine-3-carboxamide] |
| < 3000 | C[C@@H]1CN(c2nc(-c3cccc(Cl)c3)ccc2C(=O)NS(=O)(=O)c2cccnc2N)C(C)(C)C1 [Compound 2183, N-[(2-amino-3-pyridyl)sulfonyl]-6-(3-chlorophenyl)-2-[(4S)-2,2,4-trimethylpyrrolidin-1-yl]pyridine-3-carboxamide] |
| < 3000 | Cc1cccc(-c2cnc(N3CC(C)CC3(C)C)c(C(=O)NS(=O)(=O)c3cccc(N)n3)c2)c1 (stereo not shown) [Compound 2184, N-[(6-amino-2-pyridyl)sulfonyl]-5-(m-tolyl)-2-(2,2,4-trimethylpyrrolidin-1-yl)pyridine-3-carboxamide] |
| < 3000 | CC1CN(c2ncccc2C(=O)NS(=O)(=O)c2cccc(O[C@@H](C)c3ccccc3)n2)C(C)(C)C1 (stereo partly drawn) [Compound 2186, N—[[6-[(1S)-1-phenylethoxy]-2-pyridyl]sulfonyl]-2-(2,2,4-trimethylpyrrolidin-1-yl)pyridine-3-carboxamide] |
| < 3000 | CC1CN(c2ncccc2C(=O)NS(=O)(=O)c2cccc(NCc3ccc(C(C)C)cc3)n2)C(C)(C)C1 (stereo not shown) [Compound 2187, N—[[6-[(4-isopropylphenyl)methylamino]-2-pyridyl]sulfonyl]-2-(2,2,4-trimethylpyrrolidin-1-yl)pyridine-3-carboxamide] |
| < 3000 | CC1CN(c2ncccc2C(=O)NS(=O)(=O)c2cccc(OCC3CCC3)n2)C(C)(C)C1 (stereo not shown) [Compound 2188, N—[[6-(cyclobutylmethoxy)-2-pyridyl]sulfonyl]-2-(2,2,4-trimethylpyrrolidin-1-yl)pyridine-3-carboxamide] |

Second part, the compound before the results:

| Structure (SMILES) | EC30 [nM] |
| --- | --- |
| COc1cccc(-c2ccc(C(=O)NS(=O)(=O)c3cccnc3N)c(N3C[C@@H](C)CC3(C)C)n2)c1O [Compound 2158, N-[(2-amino-3-pyridyl)sulfonyl]-6-(2-hydroxy-3-methoxy-phenyl)-2-[(4S)-2,2,4-trimethylpyrrolidin-1-yl]pyridine-3-carboxamide] | 3000 to 10000 |
| C[C@@H]1CN(c2nc(-c3ccc(F)cc3F)ccc2C(=O)NS(=O)(=O)c2ccc[nH]c2=O)C(C)(C)C1 [Compound 2159, 6-(2,4-difluorophenyl)-N-[(2-oxo-1H-pyridin-3-yl)sulfonyl]-2-[(4S)-2,2,4-trimethylpyrrolidin-1-yl]pyridine-3-carboxamide] | < 3000 |
| C[C@@H]1CN(c2nc(-c3cccc(F)c3F)ccc2C(=O)NS(=O)(=O)c2ccc[nH]c2=O)C(C)(C)C1 [Compound 2162, 6-(2,3-difluorophenyl)-N-[(2-oxo-1H-pyridin-3-yl)sulfonyl]-2-[(4S)-2,2,4-trimethylpyrrolidin-1-yl]pyridine-3-carboxamide] | < 3000 |
| C[C@@H]1CN(c2nc(-c3cccc4c3OCC4)ccc2C(=O)NS(=O)(=O)c2cccnc2N)C(C)(C)C1 [Compound 2163, N-[(2-amino-3-pyridyl)sulfonyl]-6-(2,3-dihydrobenzofuran-7-yl)-2-[(4S)-2,2,4-trimethylpyrrolidin-1-yl]pyridine-3-carboxamide] | < 3000 |
| CCCCOc1cccc(S(=O)(=O)NC(=O)c2cccnc2N2CC(C)CC2(C)C)n1 (stereo not shown) [Compound 2167, N-[(6-butoxy-2-pyridyl)sulfonyl]-2-(2,2,4-trimethylpyrrolidin-1-yl)pyridine-3-carboxamide] | < 3000 |
| CC(C)COc1cc(F)cc(-c2ccc(C(=O)NS(=O)(=O)c3cccc(N)n3)c(N3CCCC(C)(C)CC3)n2)c1 [Compound 2171, N-[(6-amino-2-pyridyl)sulfonyl]-2-(4,4-dimethylazepan-1-yl)-6-(3-fluoro-5-isobutoxy-phenyl)pyridine-3-carboxamide] | < 3000 |
| CC(C)c1ccccc1-c1ccc(C(=O)NS(=O)(=O)c2cccnc2N)c(N2C[C@@H](C)CC2(C)C)n1 [Compound 2172, N-[(2-amino-3-pyridyl)sulfonyl]-6-(2-isopropylphenyl)-2-[(4S)-2,2,4-trimethylpyrrolidin-1-yl]pyridine-3-carboxamide] | < 3000 |
| Cc1ccc(O)c(-c2ccc(C(=O)NS(=O)(=O)c3ccc[nH]c3=O)c(N3C[C@@H](C)CC3(C)C)n2)c1 [Compound 2174, 6-(2-hydroxy-5-methyl-phenyl)-N-[(2-oxo-1H-pyridin-3-yl)sulfonyl]-2-[(4S)-2,2,4-trimethylpyrrolidin-1-yl]pyridine-3-carboxamide] | 3000 to 10000 |
| CC1CN(c2ncccc2C(=O)NS(=O)(=O)c2cccc(N3CCN(Cc4ccncc4)CC3)n2)C(C)(C)C1 (stereo not shown) [Compound 2175, N—[[6-[4-(4-pyridylmethyl)piperazin-1-yl]-2-pyridyl]sulfonyl]-2-(2,2,4-trimethylpyrrolidin-1-yl)pyridine-3-carboxamide] | 3000 to 10000 |
| Cc1ccccc1-c1ccc(C(=O)NS(=O)(=O)c2ccc[nH]c2=O)c(N2C[C@@H](C)CC2(C)C)n1 [Compound 2176, 6-(o-tolyl)-N-[(2-oxo-1H-pyridin-3-yl)sulfonyl]-2-[(4S)-2,2,4-trimethylpyrrolidin-1-yl]pyridine-3-carboxamide] | < 3000 |
| C[C@@H]1CN(c2nc(-c3cccc(C#N)c3)ccc2C(=O)NS(=O)(=O)c2ccc[nH]c2=O)C(C)(C)C1 [Compound 2185, 6-(3-cyanophenyl)-N-[(2-oxo-1H-pyridin-3-yl)sulfonyl]-2-[(4S)-2,2,4-trimethylpyrrolidin-1-yl]pyridine-3-carboxamide] | 3000 to 10000 |
| COc1ccc(F)cc1-c1ccc(C(=O)NS(=O)(=O)c2cccnc2N)c(N2C[C@@H](C)CC2(C)C)n1 [Compound 2189, N-[(2-amino-3-pyridyl)sulfonyl]-6-(5-fluoro-2-methoxy-phenyl)-2-[(4S)-2,2,4-trimethylpyrrolidin-1-yl]pyridine-3-carboxamide] | < 3000 |
